Assay results from patent US20230074545A1, “TREATMENT OF CANCER WITH CDK12/13 INHIBITORS” (Kinnate Biopharma Inc., priority 2019, published 2023).

Experiments:
BRCA1 [1] = test: DDR gene expression (qPCR) in HCC70 cells; type: cell-based
Description: HCC70 (ATCC CRL-2315) cells in 96-well plate format were treated with either DMSO or compound 1 for 2 hours. After compound treatment was done for 2 hours, the plates were washed by PBS once, then fresh culture medium was added to the cells and cells were incubated for 4, 10, 22, 46, 70 hours respectively. At each time point (4, 10, 22, 46, 70 hours after 2 h washout) RNA extraction was done according to manufacturer's instructions as follows. RNA Extraction and qPCR was done using the Ambion Cell to CT kit (Cat #AM1728). Briefly, cells were removed from the incubator, washed once in PBS, lysed by adding 50 μL Lysis Solution from the kit, mixed 5 times and 5 μL Stop Solution was added to the well. All actions were done using RNAase and DNAase free labware.
The Reverse Transcription Reaction mix was then prepared. All reagents were kept in an ice-water bath during the whole operation. […]
The setting of QuantStudio®5 Real-Time qPCR System was shown in the following figure and the fluorescence gain was set at 1×.
Data Analysis was done according to the QuantStudio5 Software. Threshold of signal was calculated by QuantStudio 5 software using the default setting. The relative gene expression was evaluated using the following formulas: […]
Gene expression was detected using qPCR with the Taqman (Applied Biosystems, ThermoFisher Scientific; Carlsbad, Calif.) probe listed in Table 7. […]

RNA polymerase II [2] = test: Inhibition of phosphorylation of RNA polymerase II in NCI-H82 cells; type: cell-based; conditions: Homo sapiens, 2 hours, phosphorylated/total RNA polymerase II
Description: CDK12 and CDK13 phosphorylate RNA polymerase II. The ability of compound 1 to inhibit phosphorylation of RNA polymerase II was analyzed in NCI-H82 cells. 200,000 cells were plated in each well of a 96 well MSD plate. Cells were treated with compound 1, THZ531 (a positive control), or E9 at concentrations between 4 μM to 126.4 pM (0.5 log serial dilutions) for 2 hours. THZ531 and E9 are further discussed in Gao et al, Cell Chemical Biology 2017. The amount of phosphorylated RNA polymerase II and the total amount of RNA polymerase II was analyzed using antibodies. The values were normalized by taking the ratio of the phosphorylated RNA polymerase II to the total RNA polymerase II. As depicted in FIG. 3A (THZ531), FIG. 3B (Compound 1), and Table 6, increasing the concentration of compound 1 results in a dose-specific increase in the inhibition of phosphorylation of RNA polymerase II.

BRCA1 [3] = test: DDR gene expression in HCC70 xenograft tumor cells; type: in vivo, CB-17 SCID mice; conditions: single intravenous dose 20 or 25 mg/kg; 6 and 24 hours after dose
Description: A triple-negative xenograft model of breast cancer was used in this experiment. CB-17 SCID mice were inoculated with the HCC70 cells as the in vivo model for triple negative breast cancer. Each mouse was inoculated subcutaneously on the right flank with HCC70 tumor cells (5×10^6) in 0.1 mL of RPMI-1640 Medium and Matrigel mixture (1:1 ratio) for tumor development. The treatment started when the mean tumor size reached approximately 100-150 mm^3. Mice were treated with a single dose of either vehicle, 20 mg/kg compound 4, or 25 mg/kg of compound 4 intravenously. 0.5, 6, and 24 hours post dose, tumor cells were collected and analyzed for gene expression.

FLT3 = target: T1, FLT3 (Homo sapiens, UniProt P36888); test: Radiometric kinase panel; type: biochemical
T1 construct: either as full-length or enzymatically active fragments; purchased ProQinase GmbH (Reaction Biology)
Description: (§1) The compounds 1-5 (see Table 1) were assayed for kinase activity at ProQinase (ProQinase GmbH, Reaction Biology; Freiburg, Germany) using their commercially available radiometric kinase assay services. Briefly, the compounds were provided as solids and were dissolved to 1×10^−03 M/100% DMSO stock solutions on the day of assay. All protein kinases were provided by ProQinase and were expressed in Sf9 insect cells or in E. coli as recombinant GST-fusion proteins or His-tagged proteins, either as full-length or enzymatically active fragments. All kinases were produced from human cDNAs and purified by either GSH-affinity chromatography or immobilized metal. The purity of the protein kinases was examined by SDS-PAGE/Coomassie staining, the identity was checked by mass spectroscopy. A radiometric protein kinase assay (^33PanQinase® Activity Assay) was used for measuring the kinase activity of the protein kinase. All kinase assays were performed in 96-well FlashPlates™ from PerkinElmer (Boston, Mass., USA) in a 50 microliter reaction volume. The reaction cocktail was pipetted in four steps in the following order: 1) 25 microliter of assay buffer (standard buffer/[gamma-^33P]-ATP); 2) 10 microliter of ATP solution (in H2O); 3) 5 microliter of test compound (in 10% DMSO); 4) 10 microliter of enzyme/substrate mixture.
(§2) Compound 4 was analyzed for selectivity against a panel of other kinases at ProQinase using their commercially available radiometric kinase assay services and the methods described in Example 1.

BRAF = target: T2, BRAF (Homo sapiens, UniProt P15056); test: Radiometric kinase panel; type: biochemical
T2 construct: purchased ProQinase GmbH (Reaction Biology)
Description: as §1, §2

RNA polymerase II [4] = test: Phosphorylation of RNA polymerase II (pS2/S2) in HCC70 xenograft; type: in vivo, CB-17 SCID mice; conditions: intravenous; compound 4 20 or 25 mg/kg, compound 5 10 or 25 mg/kg; 0.5, 6 and 24 hours after the dose
Description: The ability of compound 4 and compound 5 to inhibit phosphorylation of RNA polymerase II at the S2 unit was analyzed in a mouse xenograft model of triple-negative breast cancer. CB-17 SCID mice were inoculated with the HCC70 cells as the in vivo model for triple negative breast cancer. Each mouse was inoculated subcutaneously on the right flank with HCC70 tumor cells (5×106) in 0.1 mL of RPMI-1640 Medium and Matrigel mixture (1:1 ratio) for tumor development. The treatment started when the mean tumor size reached approximately 100-150 mm^3. Mice were treated intravenously with vehicle only, 20 mg/kg of compound 4, 25 mg/kg of compound 4, 10 mg/kg of compound 5, or 25 mg/kg of compound 5 for 2 hours. Measurements were taken at 0.5 hours, 6 hours and 24 hours after the dose. The amount of phosphorylated RNA polymerase II and the total amount of RNA polymerase II was analyzed. The values were normalized by taking the ratio of the phosphorylated RNA polymerase II to the total RNA polymerase II (pS2/S2).

T1 sequence (P36888 27-993): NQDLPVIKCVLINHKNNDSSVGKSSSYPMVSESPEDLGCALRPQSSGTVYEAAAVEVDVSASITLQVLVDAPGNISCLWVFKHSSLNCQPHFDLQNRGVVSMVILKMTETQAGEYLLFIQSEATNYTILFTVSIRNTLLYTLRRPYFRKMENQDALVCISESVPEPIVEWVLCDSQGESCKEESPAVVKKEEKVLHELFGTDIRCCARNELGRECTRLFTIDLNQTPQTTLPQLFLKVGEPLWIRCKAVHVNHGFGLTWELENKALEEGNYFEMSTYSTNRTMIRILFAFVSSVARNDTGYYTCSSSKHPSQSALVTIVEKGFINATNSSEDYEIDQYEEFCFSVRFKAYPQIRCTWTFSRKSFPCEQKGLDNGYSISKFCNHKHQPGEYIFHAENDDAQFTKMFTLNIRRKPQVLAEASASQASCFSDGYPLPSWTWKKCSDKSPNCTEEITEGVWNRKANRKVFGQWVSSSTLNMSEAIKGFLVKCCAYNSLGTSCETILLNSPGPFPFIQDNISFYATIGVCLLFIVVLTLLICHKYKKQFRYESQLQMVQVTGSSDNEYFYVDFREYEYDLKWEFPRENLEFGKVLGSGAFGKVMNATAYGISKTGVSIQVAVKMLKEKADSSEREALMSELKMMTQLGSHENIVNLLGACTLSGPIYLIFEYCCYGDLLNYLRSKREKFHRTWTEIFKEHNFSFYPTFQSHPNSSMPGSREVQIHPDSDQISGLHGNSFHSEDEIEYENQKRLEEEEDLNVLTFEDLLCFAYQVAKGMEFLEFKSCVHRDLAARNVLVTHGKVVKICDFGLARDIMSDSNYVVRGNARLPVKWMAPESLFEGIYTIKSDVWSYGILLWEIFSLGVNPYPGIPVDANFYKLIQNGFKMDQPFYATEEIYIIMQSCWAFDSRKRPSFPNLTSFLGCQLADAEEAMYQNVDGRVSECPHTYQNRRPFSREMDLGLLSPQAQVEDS
T2 sequence (P15056 whole entry): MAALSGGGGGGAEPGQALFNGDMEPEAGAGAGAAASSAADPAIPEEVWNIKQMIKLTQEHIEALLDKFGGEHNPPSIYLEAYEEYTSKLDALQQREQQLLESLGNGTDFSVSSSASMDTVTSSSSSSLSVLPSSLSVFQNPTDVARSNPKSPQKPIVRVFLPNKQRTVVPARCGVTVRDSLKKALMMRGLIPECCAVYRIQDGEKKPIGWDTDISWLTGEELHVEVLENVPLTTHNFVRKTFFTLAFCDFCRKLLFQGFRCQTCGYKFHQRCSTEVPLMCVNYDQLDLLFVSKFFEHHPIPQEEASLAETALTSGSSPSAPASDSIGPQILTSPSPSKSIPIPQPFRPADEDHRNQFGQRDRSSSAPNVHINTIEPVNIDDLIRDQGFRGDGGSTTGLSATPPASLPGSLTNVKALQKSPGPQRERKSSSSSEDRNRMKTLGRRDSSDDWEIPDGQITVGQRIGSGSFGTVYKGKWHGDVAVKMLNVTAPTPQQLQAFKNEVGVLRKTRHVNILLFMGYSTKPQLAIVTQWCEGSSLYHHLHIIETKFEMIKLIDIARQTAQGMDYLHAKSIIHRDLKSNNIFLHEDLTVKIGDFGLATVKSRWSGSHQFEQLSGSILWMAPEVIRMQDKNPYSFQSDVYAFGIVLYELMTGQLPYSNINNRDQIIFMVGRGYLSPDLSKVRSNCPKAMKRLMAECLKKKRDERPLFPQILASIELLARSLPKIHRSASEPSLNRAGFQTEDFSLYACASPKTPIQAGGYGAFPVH

Row | SMILES | levels of BRCA1 expression (BRCA1 [1]; 2 hours treatment then washout, qPCR) | time of strongest reduction in gene expression (BRCA1) (BRCA1 [1]; after treatment (post-washout)) [h] | IC50 (RNA polymerase II [2]) [nM] | BRCA1 expression in tumor cells (BRCA1 [3]) | inhibition at 1 µM (FLT3) [%] | inhibition at 1 µM (BRAF) [%] | pS2/S2 compared to treatment with the vehicle alone (RNA polymerase II [4])
1 | C=CC(=O)Nc1ccc(C(=O)N2CC[C@@H](Nc3ncc(Cl)c(OC)n3)C2)cc1 [Compound 1, (R)-N-(4-(3-((5-chloro-4-methoxypyrimidin-2-yl)amino)pyrrolidine-1-carbonyl)phenyl)acrylamide] | reduction in levels of BRCA1 expression | 10 | 12.5 | – | – | – | –
2 | C=CC(=O)Nc1ccc(C(=O)N2CC[C@@H](Nc3ncc(C#N)cn3)C2)cc1 [Compound 4, (R)-N-(4-(3-((5-cyanopyrimidin-2-yl)amino)pyrrolidine-1-carbonyl)phenyl)acrylamide] | – | – | – | reduced | -8 | 0 | reduced the pS2/S2 at all time points
